Test results from patent US10463649B2, “Inhibitors of Mc1-1 as drugs to overcome resistance to BRAF inhibitors and MEK inhibitors” (Texas Tech University System, priority 2015, dated 2019).

Columns and labels:
Format in all cases: cell-based
SK-MEL-28 cells = experiment: Development of resistance to vemurafenib in SK-MEL-28 cells, cytotoxicity evaluated intermittently by SRB assay; details: for IC50: Homo sapiens; for Fold Resistance: SK-MEL-28
Description: (§1) Generation of BRAF-inhibitor resistant cell lines. Vemurafenib resistant clones of A375 and SK-MEL-28 were generated by continuous exposure of cells to escalating concentrations of vemurafenib over a period of one year. The cells were treated with vemurafenib for 72 hours after which fresh media was added to the cells. In all, cells were exposed weekly to two treatments of vemurafenib for 72 hours each with a 24 hour recovery period between the treatments. […] Similarly, dabrafenib resistant cells were cultured by incubating the cells with increasing concentrations of the drug for a period of 3 months as described above. The fold resistant was intermittently evaluated by cytotoxicity analysis. Vemurafenib resistant cell lines were referred to as SK-MEL-28-R or A375-R and dabrafenib resistant cell lines were referred to as A375-DR, SK-MEL-28-DR or WM-239-DR. […] Here, A375 cells were injected subcutaneously in nude mice. When palpable tumors were formed, the mice were orally treated with 30 mg/kg vemurafenib twice a day. After a month, the tumors the resisted vemurafenib treatments were extracted and cultured in vitro.
(§2) Cells were exposed to two treatments of vemurafenib in a week for 72 hours each. Cytotoxicity of these cells was evaluated intermittently by sulforhodamine B assay. […] Cells were exposed to two treatments of vemurafenib in a week for 72 hours each. Cytotoxicity of these cells was evaluated intermittently by sulforhodamine B assay.

SK-MEL-28-R cells = experiment: SRB cell survival in vemurafenib resistant SK-MEL-28-R cells
Description: (§3) Each study was performed three times independently. Mcl-1 inhibitor overcomes vemurafenib resistance in melanoma cells. […] The cell survival was evaluated by sulforhodamine B assay.
(§4) FIGS. 4A to 4D show the silencing Mcl-1 reverses vemurafenib resistance. […] The cell survival was evaluated by sulforhodamine B assay.
as §1
(§5) Mcl-1 silencing. Silencing of Mcl-1 was achieved according to the protocol described by the inventors (27). Briefly, 0.3×10^6 cells were plated in OPTI-MEM without antibiotics and transfected with either Mcl-1 siRNA or scrambled siRNA. Complexes were prepared by incubating […] siRNA with 8 μl siPORT transfection reagent in 200 μl OPTI-MEM media without serum or antibiotic for 20 minutes. These complexes were then added to the cells. Six hours after transfection, complexes were replaced with fresh medium.

A375-R cells = experiment: SRB cell survival in vemurafenib resistant A375-R cells
Description: as §3, §4, §1, §5

A375 cells = experiment: Development of resistance to vemurafenib in A375 cells, cytotoxicity evaluated intermittently by SRB assay; details: for Fold Resistance: A375; for IC50: Homo sapiens
Description: as §1, §2

[1] = tested on: A375 cells transfected with Mcl-1 plasmid; experiment: SRB cell survival in A375 cells transfected with Mcl-1 plasmid; details: Mcl-1 overexpressing A375 (transient), 72 hours
Description: FIG. 3A (A375 cells) and FIG. 3B SK-MEL-28 cells untransfected or transfected with Mcl-1 plasmid were treated with 0.2 μM and 0.4 μM vemurafenib for 72 hours. The cell survival was evaluated by sulforhodamine B assay. […] FIG. 3E A375 and A375-Mcl-1+/+ or FIG. 3F, SK-MEL-28 and SK-MEL-28-Mcl-1+/+ were treated with 0.2 μM and 0.4 μM vemurafenib for 72 hours. The cell survival was evaluated by sulforhodamine B assay.
FIG. 8A (A375) and FIG. 8B (SK-MEL-28) untransfected or transfected with Mcl-1 plasmid were treated with 10 nM dabrafenib or 2 nM trametinib for 72 hours. FIG. 8C A375 and FIG. 8D SK-MEL 28 cells untransfected or transfected with Mcl-1 plasmid were treated with 400 nM vemurafenib or 2 nM trametinib for 72 hours. The cell survival was evaluated by sulforhodamine B assay.
Mcl-1 overexpression. A375 or SK-MEL-28 cells were transiently or stably transfected with plasmid overexpressing Mcl-1 by nucleofection kit (Lonza, Basel, Switzerland) according to manufacturer's protocol and previously described by the inventors (26). Briefly, 2×10^6 cells were suspended in a reaction mixture from the kit specific to the cell line (Kit V for A375 and Kit R for SK-MEL-28 cells). The cells were transferred to the cuvettes and nucleofected using the nucleofector instrument (Amaxa, Cologne, Germany). […]

CCCS(=O)(=O)Nc1ccc(F)c(C(=O)c2c[nH]c3ncc(-c4ccc(Cl)cc4)cc23)c1F [vemurafenib]
IC50 (SK-MEL-28 cells; SK-MEL-28, Month 0, vemurafenib 0 μM): 0.075 µM
IC50 (SK-MEL-28 cells; SK-MEL-28, Month 1, vemurafenib 0.2 μM): 0.158 µM
IC50 (SK-MEL-28 cells; SK-MEL-28, Month 2, vemurafenib 0.2 μM): 0.162 µM
IC50 (SK-MEL-28 cells; SK-MEL-28, Month 3, vemurafenib 0.4 μM): 0.264 µM
IC50 (SK-MEL-28 cells; SK-MEL-28, Month 4, vemurafenib 0.4 μM): 0.315 µM
IC50 (SK-MEL-28 cells; SK-MEL-28, Month 5, vemurafenib 0.8 μM): 0.61 µM
IC50 (SK-MEL-28 cells; SK-MEL-28, Month 6, vemurafenib 0.8 μM): 0.673 µM
IC50 (SK-MEL-28 cells; SK-MEL-28, Month 7, vemurafenib 1 μM): 0.735 µM
IC50 (SK-MEL-28 cells; SK-MEL-28, Month 8, vemurafenib 1 μM): 0.754 µM
IC50 (SK-MEL-28 cells; SK-MEL-28, Month 9, vemurafenib 4 μM): 0.824 µM
IC50 (SK-MEL-28 cells; SK-MEL-28, Month 10, vemurafenib 8 μM): 1.24 µM
IC50 (SK-MEL-28 cells; SK-MEL-28, Month 11, vemurafenib 8 μM): 1.86 µM
IC50 (SK-MEL-28 cells; SK-MEL-28, Month 12, vemurafenib 10 μM): 3.3 µM
Fold Resistance (SK-MEL-28 cells; Month 0, vemurafenib 0 μM): 1
Fold Resistance (SK-MEL-28 cells; Month 1, vemurafenib 0.2 μM): 2.1
Fold Resistance (SK-MEL-28 cells; Month 2, vemurafenib 0.2 μM): 2.24
Fold Resistance (SK-MEL-28 cells; Month 3, vemurafenib 0.4 μM): 3.52
Fold Resistance (SK-MEL-28 cells; Month 4, vemurafenib 0.4 μM): 4.2
Fold Resistance (SK-MEL-28 cells; Month 5, vemurafenib 0.8 μM): 8.13
Fold Resistance (SK-MEL-28 cells; Month 6, vemurafenib 0.8 μM): 8.97
Fold Resistance (SK-MEL-28 cells; Month 7, vemurafenib 1 μM): 9.8
Fold Resistance (SK-MEL-28 cells; Month 8, vemurafenib 1 μM): 10.05
Fold Resistance (SK-MEL-28 cells; Month 9, vemurafenib 4 μM): 10.99
Fold Resistance (SK-MEL-28 cells; Month 10, vemurafenib 8 μM): 16.48
Fold Resistance (SK-MEL-28 cells; Month 11, vemurafenib 8 μM): 24.85
Fold Resistance (SK-MEL-28 cells; Month 12, vemurafenib 10 μM): 44
Decrease of cell survival (SK-MEL-28-R cells; SK-MEL-28-R cells, Mcl-1 silenced by siRNA, then 0.4 μM vemurafenib 72 hours): 55%
IC50 (SK-MEL-28-R cells; SK-MEL-28R cells, 72 hours): 3.3 µM
Decrease of cell survival (A375-R cells; A375-R cells, Mcl-1 silenced by siRNA, then 0.4 μM vemurafenib 72 hours): 65%
IC50 (A375-R cells; A375R cells, 72 hours): 3 µM
Fold Resistance (A375 cells; Month 0, vemurafenib 0 μM): 1
Fold Resistance (A375 cells; Month 1, vemurafenib 0.2 μM): 2.15
Fold Resistance (A375 cells; Month 2, vemurafenib 0.2 μM): 2.85
Fold Resistance (A375 cells; Month 3, vemurafenib 0.4 μM): 4.1
Fold Resistance (A375 cells; Month 4, vemurafenib 0.4 μM): 4.5
Fold Resistance (A375 cells; Month 5, vemurafenib 0.8 μM): 4.85
Fold Resistance (A375 cells; Month 6, vemurafenib 0.8 μM): 5.6
Fold Resistance (A375 cells; Month 7, vemurafenib 1 μM): 8.5
Fold Resistance (A375 cells; Month 8, vemurafenib 1 μM): 9.7
Fold Resistance (A375 cells; Month 9, vemurafenib 4 μM): 12.5
Fold Resistance (A375 cells; Month 10, vemurafenib 8 μM): 18.4
Fold Resistance (A375 cells; Month 11, vemurafenib 8 μM): 26
Fold Resistance (A375 cells; Month 12, vemurafenib 10 μM): 30
IC50 (A375 cells; A-375, Month 0, vemurafenib 0 μM): 0.1 µM
IC50 (A375 cells; A-375, Month 1, vemurafenib 0.2 μM): 0.215 µM
IC50 (A375 cells; A-375, Month 2, vemurafenib 0.2 μM): 0.285 µM
IC50 (A375 cells; A-375, Month 3, vemurafenib 0.4 μM): 0.41 µM
IC50 (A375 cells; A-375, Month 4, vemurafenib 0.4 μM): 0.45 µM
IC50 (A375 cells; A-375, Month 5, vemurafenib 0.8 μM): 0.485 µM
IC50 (A375 cells; A-375, Month 6, vemurafenib 0.8 μM): 0.56 µM
IC50 (A375 cells; A-375, Month 7, vemurafenib 1 μM): 0.85 µM
IC50 (A375 cells; A-375, Month 8, vemurafenib 1 μM): 0.97 µM
IC50 (A375 cells; A-375, Month 9, vemurafenib 4 μM): 1.25 µM
IC50 (A375 cells; A-375, Month 10, vemurafenib 8 μM): 1.84 µM
IC50 (A375 cells; A-375, Month 11, vemurafenib 8 μM): 2.6 µM
IC50 (A375 cells; A-375, Month 12, vemurafenib 10 μM): 3 µM
Reduction of cell survival ([1]; 0.2 μM vemurafenib): 18%
Reduction of cell survival ([1]; 0.4 μM vemurafenib): 24%
